Results taken from patent US8394829B2, “Bi-functional quinoline analogs” (Gilead Sciences, Inc., priority 2010, dated 2013).

Legend:
Human recombinant PDE4B2 = target: T1, Human recombinant PDE4B2 (Homo sapiens, UniProt Q07343); test: Inhibition of PDE4B4 enzyme activity (PDE Glo Assay); type: biochemical; details: human recombinant PDE4B2, 50 nM cAMP; read-out: PDE4 IC50
T1 construct: purchased BPS Bioscience
In short: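 Human recombinant PDE4B2 (0.12 nM) was pre-incubated with compound for 10 min at rt, then 50 nM cAMP was added for 1 hr. After IBMX stop and PKA detection, read-out was Kinase-Glo luminescence. IC50 came from a single-site nonlinear fit of RLU versus concentration.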

[1] = target: T2, human recombinant beta-2 adrenoreceptors (Homo sapiens, UniProt P07550); test: Beta-2 adrenoceptor binding assay ([3H](−)CGP-12177 displacement); details: CHO cells expressing human beta-2 adrenoreceptors, [3H](−)CGP-12177 0.3 nM, 120 min
T2 construct: expressed in transfected cells; host or cells: CHO cells
In short: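 Displacement of [3H](−)CGP-12177 (0.3 nM) from human recombinant beta-2 receptors expressed in CHO cells, measured after 120 min incubation with test compound. Bound radioligand counted by scintillation; IC50 taken from concentration-response curves as 50% of each compound's maximal inhibition.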

[2] = test system: LPS-induced TNF-α release from human peripheral blood mononuclear cells (PBMC); test: Inhibition of LPS-induced TNF-α release from human PBMC; type: cell-based; details: LPS 0.4 ng/mL, 6 h, presence or absence of ICI-118551 not given
In short: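 Ficoll-purified primary PBMC, 100,000 cells/well, pre-incubated 30 min ± 10 μM ICI-118551 (± gives PDE4-only vs PDE4 plus beta-2 activity), then compound 1 h at 37 °C (0.1% DMSO). Stimulated with 0.4 ng/mL LPS for 6 h; supernatant TNF-α by bead cytokine assay; IC50 from single-site fit.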

[3] = test system: LPS-induced neutrophil recruitment into the lungs; test: Inhibition of LPS-induced neutrophil recruitment into the lungs of Lewis rats; type: in vivo; details: intra-tracheal dose of 300 μg/kg, 2 h before LPS aerosol, BAL 4 h post-LPS
Protocol: Inhibition of Lipoploysaccharide (LPS)-Induced Neutrophil Recruitment into the Lungs of Lewis Rats
Rats were anesthetized with 4% isoflurane, placed in the supine position at an angle of 30°, the mouth opened and the trachea exposed. A 22-gauge needle with a syringe attached was introduced into the trachea and test compound in suspension (200 μl volume per 400 g) was delivered into the lungs from approximately one centimeter above the carina. The rats were allowed to recover and two hrs later conscious animals were placed into a chamber and exposed to aerosolized LPS (1.0 mg/mL) at a rate of 3.0 L/min for 20 min. Rats were euthanized 4 h post-LPS exposure by an overdose of pentobarbital (90 mg/kg) by intra-peritoneal injection. […] The supernatant was discarded, the cells were re-suspended in PBS and total cell counts were determined based on a 10 μl sample of re-suspended cells stained with trypan blue and counts performed using a Countess® cell counter (Invitrogen). […] Manual eye counting was performed to determine the percentage number of cells in the cytospun sample (determined as macrophages, neutrophils, eosinophils, T-lymphocytes and eosinophils) and these values were used to determine the total number of each cell type per sample. Typically experiments contained a minimum of six rats per experimental group and the mean±SEM number of neutrophils was determined for each group. […]

[4] = target: T2, human recombinant beta-2 adrenoreceptors; test: Functional agonism of human recombinant beta-2 adrenoreceptors expressed in CHO cells (cAMP HTRF); type: cell-based; details: CHO cells expressing human beta-2 adrenoreceptors, cAMP elevation, 30 min
In short: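 CHO cells expressing recombinant receptor incubated with compound for 30 min; intracellular cAMP rise over control read by HTRF. EC50 taken as concentration giving 50% of that compound's own maximal response, with full or partial agonism judged against isoproterenol maximum.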

T2 sequence (P07550 whole entry): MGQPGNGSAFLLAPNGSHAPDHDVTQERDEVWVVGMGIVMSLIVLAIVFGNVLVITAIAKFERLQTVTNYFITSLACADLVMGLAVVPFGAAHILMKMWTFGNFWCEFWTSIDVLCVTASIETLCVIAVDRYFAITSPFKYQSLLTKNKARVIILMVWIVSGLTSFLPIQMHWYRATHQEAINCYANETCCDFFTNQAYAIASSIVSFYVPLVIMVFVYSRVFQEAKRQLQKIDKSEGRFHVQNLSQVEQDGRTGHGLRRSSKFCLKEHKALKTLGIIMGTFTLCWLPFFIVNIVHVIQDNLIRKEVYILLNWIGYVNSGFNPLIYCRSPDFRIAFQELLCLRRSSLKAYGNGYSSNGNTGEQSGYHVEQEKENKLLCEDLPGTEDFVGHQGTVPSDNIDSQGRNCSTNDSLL
T1 sequence (Q07343 1-564 isoform Q07343-2): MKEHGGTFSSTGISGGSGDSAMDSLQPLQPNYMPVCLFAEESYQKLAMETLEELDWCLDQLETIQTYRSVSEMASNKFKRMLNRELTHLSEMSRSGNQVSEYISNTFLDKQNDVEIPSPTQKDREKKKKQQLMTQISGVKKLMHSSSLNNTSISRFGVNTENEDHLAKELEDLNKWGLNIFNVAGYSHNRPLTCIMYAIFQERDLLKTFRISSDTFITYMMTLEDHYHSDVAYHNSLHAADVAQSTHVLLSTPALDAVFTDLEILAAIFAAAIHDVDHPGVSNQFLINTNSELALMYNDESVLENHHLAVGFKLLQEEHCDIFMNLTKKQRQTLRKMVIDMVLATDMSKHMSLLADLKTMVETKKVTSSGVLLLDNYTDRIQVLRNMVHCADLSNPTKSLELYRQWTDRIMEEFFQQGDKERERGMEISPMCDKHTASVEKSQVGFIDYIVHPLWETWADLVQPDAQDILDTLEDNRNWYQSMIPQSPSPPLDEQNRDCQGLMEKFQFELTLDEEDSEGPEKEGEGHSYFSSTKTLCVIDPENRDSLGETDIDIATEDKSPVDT

COc1cccc(Nc2c(C(N)=O)cnc3c(C)cc(S(=O)(=O)c4cccc(C(=O)Nc5ccc(CCCCCNC[C@H](O)c6ccc(O)c(CO)c6)cc5)c4)cc23)c1 [Example 26, (R)-6-[[3-[[4-[5-[[2-Hydroxy-2-[4-hydroxy-3-(hydroxymethyl)phenyl]ethyl]amino]pentyl]phenyl]carbamoyl]phenyl]sulfonyl]-4-[(3-methoxyphenyl)amino]-8-methylquinoline-3-carboxamide 2,2,2-trifluoroacetate] showed an IC50 (Human recombinant PDE4B2) of less than 100 nM, an IC50 [1] greater than 300 nM and an EC50 [2] of less than 100 nM. It also gave a neutrophil inhibition [3] of no more than 40% and an EC50 [4] greater than 300 nM.
